Experimental data published in patent US20230381185A1, “NOVEL FORMULATIONS FOR ORAL ADMINISTRATION OF THERAPEUTIC AGENTS TO THE GASTROINTESTINAL TRACT” (3-D Matrix, Ltd., priority 2022, published 2023).
“Also recorded” adds a separate entry of the source. Like-named read-outs stand apart in the source and are kept apart here.

What was measured:
[1] = cited from earlier work
[2] = test system: liver punch hole injuries in pigs; conditions: cited from earlier work; for inflammatory cell infiltration due to the SAP: short-term study
[3] = test system: oozing wounds in the walls of the stomach and/or duodenum of pigs; conditions: endoscopic administration, no control group; cited from earlier work
DSS-induced colitis mice = experiment: Efficacy in DSS-induced colitis (DAI, colon weight/length, MPO, histology, immune cells); assay type: in vivo
Text: An additional benefit of this nanocomposite system is that it can be dried and then reconstituted in vivo or under in vivo-like conditions without substantial alteration of its properties. The dried nanocomposite offers the advantage of a long-duration storage, but, perhaps more importantly, the dried nanocomposite powder can be encapsulated in various types of capsules known in the art for a controlled and localized delivery in precise part of the GIT with systems differentiated in the basis of GIT transit times, pH changes, bacterial enzymes, mucoadhesion, nanotechnologies and disease-associated triggers. One such capsule, designed for release of hydrated RADA16 hydrogel doped with a macromolecular dye, fluorescein isothiocyanate—dextran 4 kDa (FD4), mostly in the large intestine, has been described by Eleftheriadis et al. (Pharm. Development Tech. 25(4): 1-23 (2020)). That reference discloses a pH sensitive hydroxypropyl methylcellulose-phthalate (HPMCP)-based 3D-printed capsule. Other encapsulation materials suited to the present invention include poly(meth) acrylate polymers and members of the Eudragit family (Chu, J. N. and Traverso, G., Foundations of gastrointestinal-based drug delivery and future developments, Nature Reviews: Gastroenterology & Hepatology (2021) doi: 10.1038/s41575-021-00539-w). The present invention is based, at least, on the following findings/parameters: • 1. A nanocomposite based on the physical mixture of a preformed nanosystem (namely nanoemulsion, NE) loaded with a drug intended for the treatment of IBD, and a preformed self-assembling-peptide ([…])-based hydrogel (PURASTAT) was created at different concentrations of SAP. • 2. The creation of nanocomposites characterized by two different concentrations, led to the development of systems with different structural properties, leading to differences in the drug-release behaviours. • 3. […] The use of nanocomposite to test the therapeutic efficacy of the drug on an IBD-mouse model brought results based on different technique, detailed herein. • 5. Certain disease factors were improved by administration of PS hydrogel/NE mixture alone, even in the absence of any active ingredients. Disease activity index (DAI) score, used to evaluate the DSS-induced colitis. […] For each parameter a score from 0 to 4 was attributed and afterwards divided by three, resulting in the total DAI score ranging from 0 (unaffected) to 4 (severe colitis) (Gonçalves, F. da C., Schneider, N., H. M.-A. S. & 2013, U. Characterization of Acute Murine Dextran Sodium Sulfate (DSS) Colitis: Severity of Inflammation is Dependent on the DSS Molecular Weight and Concentration. Acta Sci. Vet. 41, 1-9 (2013)). Colon length and weight, which is often reduced in cases of inflammation (Biton, I. E. et al. Assessing Mucosal Inflammation in a DSS-Induced Colitis Mouse Model by MR Colonography. Tomogr. (Ann Arbor, Mich.) 4, 4-13 (2018)). The activity of the enzyme myeloperoxidase (MPO), which is a direct indicator of neutrophils infiltration into the colonic mucosa, and thus an important marker of inflammation (Hansberry, D. R., Shah, K., Agarwal, P. & Agarwal, N. Fecal Myeloperoxidase as a Biomarker for Inflammatory Bowel Disease. Cureus 9, (2017)). Histomorphologic evaluation by HPS stain (hematoxylin phloxine saffron stain), similar to H&E. HPS can differentiate between the most common connective tissue (collagen) and muscle and cytoplasm by staining the former yellow and the latter two pink, unlike an H&E stain, which stains all three pink. Immunohistochemistry for the detection of CD45 positive cells.
Efficacy of drug-loaded nanocomposites compared to a variety of controls was tested using mice of the same strain used in Example 5. Based on the results from the Stage 1 in vivo studies already described, all mice (except for the G1 healthy control group) were given 3% v/v DSS in drinking water for 4 days. After 4 days all mice were given normal drinking water (i.e., no DSS). […]

## IEIKIEIKIEIKI [IEIK13]
[1]; 1% in water
  storage modulus G′: ~700 Pa
[2]; compared to RADA16
  hemostasis: statistically significant improvement
[2]
  inflammatory cell infiltration due to the SAP: absence
[3]
  hemostasis: hemostasis was achieved in both heparinized and non-heparinized animals

## KLDLKLDLKLDL [KLD12]
[1]; 1.5% in water
  storage modulus G′: about 350 Pa

## Ac-RADARADARADARADA-CONH2 [RADA16]
[1]; 2.5% in water
  storage modulus G′: about 350 Pa
[2]
  inflammatory cell infiltration due to the SAP: absence

## C[C@@H]1CCN(C(=O)CC#N)C[C@@H]1N(C)c1ncnc2[nH]ccc12 [TFC, Tofacitinib]
DSS-induced colitis mice; indicator of neutrophil infiltration
  Myeloperoxidase (MPO) activity in colonic tissue: slight improvement
DSS-induced colitis mice; mouse, in vivo
  Th2 or Treg populations: did not affect
  infiltration of lymphocytes / CD45+ cells: reduced infiltration of lymphocytes
  proportion of Th1 and Th17 proinflammatory populations: significantly reduced
  total amount of T cells (CD3+): strongly reduced
DSS-induced colitis mice; sacrifice at day 10, relative to G2 untreated IBD mice
  colon weight/colon length ratio (g/cm): statistically significant improvement; also recorded: significantly prevented
DSS-induced colitis mice; with respect to G2
  epithelium and muscularis structure / architecture (histology): considerable amelioration
